For data set [1], the system named is cells obtained from the spleen of Balb/c mice sensitized with sheep red blood cells. The experiment in a line: Plaque Forming Cell Assay (inhibition of antibody production). The settings on record: for inhibition at 100 µM / inhibition at 10 µM: Mus musculus, Erythrocyte, inhibition of antibody production, read-out: Inhibition Rate. The class given is cell-based, Balb/c strain male mice. As to the method:
The method developed by Jerne [Science, 140, 405 (1963)] and Yamamoto, et al [Drugs. Exptl. Clin. res., 8, 5 (1982)] were modified for plaque forming cell assay.
That is, Balb/c strain male mice (age of 7 weeks, Charles River Japan Inc.) were sensitized with 1×10^8 sheep red blood cells (Bio Test Research Institute) and the spleen was extirpated on the sixth or seventh day. The cells obtained from the spleen were treated with ACT solution (Tris-ammonium chloride isotonic buffer) to remove red blood cells. The cells were washed three times with RPMI-1640 medium (Nissui Pharmaceutical Co. . The cells (1×10^7) were incubated in RPMI-1640 medium containing 10% calf fetal serum (Gibco Co.), 50 μg/ml streptomycin, 50 IU/ml of penicillin, 2-mercaptoethanol (5×10^-5 M), sheep red blood cells (5×10^6 cells) and a test compound dissolved in dimethyl sulfoxide supplied on a microculture plate (NUNC Co., 24 wells) in a carbon dioxide gas incubator (TABAI ESPEC CORP) at 37° C. for 5 days.
After completion of the incubation, the cells were transferred to a plastic test tube and centrifuged at 2000 rpm. After the supernatant was removed, the cells were resuspended in 1 ml of RPMI-1640 medium. The cell suspension was sealed in a Cunnigham chamber (Takahashi Giken Co.) together with sheep red blood cells and guinea pig complement (Cedarlane Research Institute) according to the method of Cunnigham [Immunology, 14, 599 (1968)] and incubated at 37° C. for 1 to 2 hours. Direct plaque forming cell (PFC) count was counted.
A rate of inhibiting antibody production by the test compound was determined by the following equation. [formula] A : PFC count in the absence of test compound (dimethylsulfoxide alone) B : PFC count in the presence of test compound

In the next data set the test system is calvaria. The experiment in a line: Activity of inhibiting bone absorption (PTH-intensified calcium release from cultured calvaria). It is filed as cell-based, dd mouse. The note with it: Mus musculus, human PTH 1-34 1×10^-8 M, 96 hours, read-out: Inhibition Rate. As to the method:
A calvaria of a 5 to 6 day-old dd mouse was aseptically cut off, washed with Dulbecco's modified phosphate buffered saline not containing calcium and magnesium (manufactured by Gibco Oriental Co.) and separated along the sutura of its center. One half of the calvaria so separated was cultured in 1.5 ml of Dulbecco's modified Eagle medium (manufactured by Gibco Oriental Co.) containing 15% of thermally inactivated (at 56° C. for 20 minutes) horse serum and 2.5% of fetal calf serum. The test compound was dissolved in dimethyl sulfoxide, and 10 μl (final concentration: 1×10^-4 M or 1×10-^5 M) of the solution so prepared was added to the culture. Parathyroid hormone (human PTH 1-34, manufactured by Sigma Co.) was dissolved in 0.15 M sodium chloride solution (pH 3), and 3 μl (final concentration: 1×10^-8 M) of the solution so prepared was added to the culture. The cultivation was carried out for 96 hours at 37° C. in an atmosphere consisting of 95% of air and 5% of carbon dioxide. The culture medium was once replaced with a fresh one after 48 hours from the beginning of the cultivation. The concentration of dissolved calcium (i.e., absorption of bone) from the PTH-intensified bone was determined by measuring the quantity of calcium accumulated in the culture collected in 96 hours of cultivation, whereby the concentration of total calcium contained in the culture was measured with Calcium C-Test Wako (manufactured by Wako Pure Chemicals Co., Ltd.), and the inhibition rate was calculated therefrom in accordance with the equation set forth below. [formula] Cd : Total calcium concentration in the culture treated with both test compound and PTH
Cp : Total calcium concentration in the culture treated with PTH alone
Co Total calcium concentration in the culture treated with neither test compound nor PTH

The test system of another data set is dd-strain male mice. The experiment in a line: Acute toxicity test. It is filed as in vivo. The settings on record: orally administered, mortality for 7 days. As to the method:
A test compound was orally administered to three dd-strain male mice weighting 20±1 g. The minimum lethal dose (MLD) was determined by observing the mortality for 7 days after the administration.

Some results are limits rather than exact numbers.

Take `CCCCn1c(=O)c(C(=O)Nc2ccncc2)c(O)c2sccc21` [Compound 3, 4-(n-Butyl)-4,5-dihydro-7-hydroxy-5-oxo-N-(4-pyridyl)thieno-[3,2-b]pyridine-6-carboxamide]: in data set [1] (10^-4 M), the “Direct PFC Count (mean ± S.E.M.)” value worked out at 101 ± 76 and the inhibition – broadly, the change of the read-out against control, counted positive when it falls – at 100 µM amounted to 98%. In addition, in data set [1] (10^-5 M), the “Direct PFC Count (mean ± S.E.M.)” value was determined as 59 ± 38 and the inhibition at 10 µM amounted to 98.8%. Moreover, the inhibition at 10 µM in the data set with calvaria turned out to be 141%.
In the same order, the values of `CCCCn1c(=O)c(C(=O)Nc2ccncc2)c(O)c2ccsc21` [Compound 5, 7-(n-Butyl)-6,7-dihydro-4-hydroxy-6-oxo-N-(4-pyridyl)thieno-[2,3-b]pyridine-5-carboxamide] are 109 ± 77, 97.8%, 227 ± 131, 95.5% and 53%.
Consider `O=C(Nc1cccnc1)c1c(O)c2sccc2[nH]c1=O` [Compound 1, 4,5-Dihydro-7-hydroxy-5-oxo-N-(3-pyridyl)thieno[3,2-b]-pyridine-6-carboxamide], for which the inhibition at 100 µM in the data set with calvaria is -1%.
With `CCCCn1c(=O)c(C(=O)Nc2cccnc2)c(O)c2sccc21` [Compound 4, 4-(n-Butyl)-4,5-dihydro-7-hydroxy-5-oxo-N-(3-pyridyl)thieno-[3,2-b]pyridine-6-carboxamide], in data set [1] (10^-4 M), the “Direct PFC Count (mean ± S.E.M.)” value amounted to 336 ± 124 and the inhibition at 100 µM was 93.3%. In addition, in data set [1] (10^-5 M), the “Direct PFC Count (mean ± S.E.M.)” value is listed as 395 ± 52 and the inhibition at 10 µM turned out to be 92.1%. In addition, the inhibition at 10 µM in the data set on calvaria is 58%. In addition, in the data set on dd-strain male mice, the “minimum lethal dose (MLD)” value is listed as more than 300 mg/kg.
On to `O=C(Nc1cccnc1)c1c(O)c2ccsc2[nH]c1=O` [Compound 8, 6,7-Dihydro-4-hydroxy-6-oxo-N-(3-pyridyl)thieno[2,3-b]-pyridine-5-carboxamide], for which, in the data set with calvaria, the inhibition at 10 µM came out at 18%.
For `O=C(Nc1ccncc1)c1c(O)c2sccc2[nH]c1=O` [Compound 2, 4,5-Dihydro-7-hydroxy-5-oxo-N-(4-pyridyl)thieno[3,2-b]-pyridine-6-carboxamide], in the data set with calvaria, the inhibition at 100 µM was 51%.
With `CCCCn1c(=O)c(C(=O)Nc2cccnc2)c(O)c2ccsc21` [Compound 6, 7-(n-Butyl)-6,7-dihydro-4-hydroxy-6-oxo-N-(3-pyridyl)thieno-[2,3-b]pyridine-5-carboxamide], in data set [1] (10^-4 M), the “Direct PFC Count (mean ± S.E.M.)” value turned out to be 42 ± 29 and the inhibition at 100 µM was 99.2%. In data set [1] (10^-5 M), the “Direct PFC Count (mean ± S.E.M.)” value was 59 ± 29 and the inhibition at 10 µM is 98.8%. Moreover, the inhibition at 10 µM with calvaria was found to be 38%.
For the compound `O=C(Nc1ccncc1)c1c(O)c2ccsc2[nH]c1=O` [Compound 7, 6,7-Dihydro-4-hydroxy-6-oxo-N-(4-pyridyl)thieno[2,3-b]-pyridine-5-carboxamide], the inhibition at 10 µM in the data set on calvaria stood at 32%. For the same compound, the “minimum lethal dose (MLD)” value in the data set on dd-strain male mice is given as more than 300 mg/kg.

These data come from US5219864A, “Thienopyridine derivatives” (Kyowa Hakko Kogyo Co., Ltd., priority 1991, dated 1993).
